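Protocol summary: plate cells (96-well), add compound at 5 concentrations, incubate 48 h, interpolate endpoints linearly. Definition used: TGI = concentration required for complete inhibition of growth.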
Tests used:
Experiment in all cases: NCI anticancer screen, dose series, 48 h
SK-MEL-2 melanoma = test system: SK-MEL-2 melanoma
NCI-H226 lung = test system: NCI-H226 lung
SNB-75 CNS = test system: SNB-75 CNS
HS 578T breast = test system: HS 578T breast
MDA-N = test system: MDA-N
KM12 colon = test system: KM12 colon
LOX IMVI melanoma = test system: LOX IMVI melanoma
SNB-19 CNS = test system: SNB-19 CNS
MOLT-4 leukemia = test system: MOLT-4 leukemia
MDA-MB-435 = test system: MDA-MB-435
HCT-15 colon = test system: HCT-15 colon
ACHN renal = test system: ACHN renal
A498 renal = test system: A498 renal
BT-549 breast = test system: BT-549 breast
OVCAR-4 ovarian = test system: OVCAR-4 ovarian
SK-MEL-5 melanoma = test system: SK-MEL-5 melanoma
HT29 colon = test system: HT29 colon
SR leukemia = test system: SR leukemia
RPMI-8226 leukemia = test system: RPMI-8226 leukemia
MALME-3M melanoma = test system: MALME-3M melanoma

Row | Compound | TGI (SK-MEL-2 melanoma) [µM] | TGI (NCI-H226 lung) [µM] | TGI (SNB-75 CNS) [µM] | TGI (HS 578T breast) [µM] | TGI (MDA-N) [µM] | TGI (KM12 colon) [µM] | TGI (LOX IMVI melanoma) [µM] | TGI (SNB-19 CNS) [µM] | TGI (MOLT-4 leukemia) [µM] | TGI (MDA-MB-435) [µM] | TGI (HCT-15 colon) [µM] | TGI (ACHN renal) [µM] | TGI (A498 renal) [µM] | TGI (BT-549 breast) [µM] | TGI (OVCAR-4 ovarian) [µM] | TGI (SK-MEL-5 melanoma) [µM] | TGI (HT29 colon) [µM] | TGI (SR leukemia) [µM] | TGI (RPMI-8226 leukemia) [µM] | TGI (MALME-3M melanoma) [µM]
1 | COc1cc(C(C)=O)cc(C(=O)N(C(C)C)C(C)C)c1[Si](C)(C)C | > 100 | > 100 | 56.4 | > 100 | > 100 | > 100 | > 100 | > 100 | > 100 | > 100 | > 100 | > 100 | > 100 | > 100 | > 100 | > 100 | – | – | – | –
2 | Cc1cc(C)c(C(=O)c2nnc3ccccc3c2N)c(C)c1 | 31.9 | 49.7 | 86.3 | 57.3 | 52.6 | 42 | 34.9 | > 100 | > 100 | 56.3 | – | > 100 | > 100 | > 100 | – | 26.8 | 76.8 | > 100 | > 100 | –
3 | CC(C)CC(NC(=O)C(CI)Cc1ccccc1)C(=O)Nc1ccccc1 (stereo not given) | > 100 | – | > 100 | – | > 100 | > 100 | > 100 | > 100 | > 100 | > 100 | > 100 | > 100 | > 100 | 57 | > 100 | > 100 | – | > 100 | > 100 | > 100
4 | COc1ccc2[nH]c3c(c2c1)CC(=S)N1CCCC(CC3=O)C1 (stereo not given) | 81.2 | > 100 | > 100 | > 100 | > 100 | > 100 | – | > 100 | – | > 100 | > 100 | > 100 | > 100 | > 100 | > 100 | > 100 | > 100 | – | > 100 | > 100
5 | Cn1c(=O)oc2cc(C(O)CN3CCN(Cc4ccccn4)CC3)c(Cl)cc21 (stereo not given) | – | > 100 | > 100 | – | > 100 | > 100 | > 100 | > 100 | > 100 | > 100 | > 100 | > 100 | > 100 | > 100 | > 100 | – | > 100 | > 100 | – | > 100
6 | CC(O)CCCCC(O)CCC[C@H](O)[C@H]1CCC([C@H]2CCC([C@@H](O)CCCCCCCCCCCCC3=C[C@H](C)OC3=O)O2)O1 (stereo not given in full) | 18.3 | 19.5 | 18.9 | 29 | 22 | 16.2 | – | 20.2 | 20.1 | 18.5 | 25.5 | 21.1 | – | 21.3 | 25.9 | 17.2 | 20.7 | 20.5 | – | –
7 | COc1ccc(-c2csc(Cc3nc4ccccc4c(=O)n3-c3ccc(Cl)cc3)n2)cc1 | 35.3 | > 100 | > 100 | > 100 | 59 | > 100 | > 100 | 77.7 | 67.4 | > 100 | 97.6 | > 100 | > 100 | > 100 | > 100 | 41.1 | > 100 | – | 45.8 | > 100
8 | Cc1cc(C2CC(O)C(CO)O2)c(F)cc1F (stereo not given) | – | > 100 | > 100 | – | > 100 | > 100 | > 100 | > 100 | > 100 | > 100 | > 100 | > 100 | > 100 | > 100 | > 100 | – | > 100 | > 100 | – | > 100
9 | CC(=O)O[C@H]1CC[C@@]2(C)C(=CC[C@@H]3[C@@H]2CC[C@]2(C)NC(=O)/C(=C\c4ccccc4)C[C@@H]32)C1 | 39.8 | 40.8 | 44.3 | – | 42.6 | 42.7 | 33.4 | 31.8 | > 100 | 33.2 | 40.4 | 76.1 | 27.6 | 34.2 | 43.8 | 23.2 | 31.2 | > 100 | 64.2 | 36.2
10 | CN1CCc2c(sc3ncn(C)c(=N)c23)C1 | > 100 | > 100 | > 100 | > 100 | > 100 | > 100 | > 100 | > 100 | > 100 | > 100 | > 100 | > 100 | > 100 | > 100 | > 100 | > 100 | > 100 | – | > 100 | > 100
11 | CCCCSC1=N/C(=C\c2ccco2)C(Cl)=N1 | > 100 | > 100 | > 100 | > 100 | > 100 | > 100 | – | > 100 | > 100 | > 100 | > 100 | > 100 | > 100 | > 100 | > 100 | > 100 | > 100 | – | > 100 | > 100
12 | CCOC(=O)CO/N=C1/C(c2c(O)[nH]c3ccccc23)=Nc2ccccc21 | > 100 | – | 9.88 | > 100 | > 100 | > 100 | > 100 | 89.4 | 78.5 | > 100 | > 100 | > 100 | 38.2 | > 100 | 16.5 | > 100 | > 100 | – | > 100 | > 100
13 | O=C(N[C@@H](c1ccccc1)[C@@H](O)C(=O)OCc1ccc([N+](=O)[O-])cc1)c1ccccc1 | > 100 | > 100 | > 100 | > 100 | > 100 | > 100 | > 100 | > 100 | 76 | > 100 | > 100 | > 100 | > 100 | > 100 | > 100 | > 100 | > 100 | – | – | > 100
14 | CC1(C)CC(=O)C(C=NC(=O)c2ccncc2)=C(O)C1 | > 100 | > 100 | > 100 | > 100 | > 100 | > 100 | > 100 | > 100 | > 100 | > 100 | > 100 | > 100 | – | > 100 | > 100 | > 100 | > 100 | – | – | –
15 | Cc1cn(C2CC(O)C(CO[Si](C)(C)C(C)(C)C)OC2OC(C)C)c(=O)[nH]c1=O (stereo not given) | > 100 | > 100 | > 100 | > 100 | > 100 | > 100 | 32.5 | > 100 | – | > 100 | > 100 | > 100 | – | > 100 | > 100 | 93.9 | 44.1 | 62.4 | 78.2 | > 100
16 | O=C(/C=C/c1ccc(OCc2cccc(Cl)c2)cc1)NO | 53.7 | 35.6 | > 100 | > 100 | 44.5 | 43 | 24.4 | 60.7 | 18 | 53.3 | 20.8 | 23.5 | 27.8 | 80.7 | 38 | 45.7 | 28.2 | 11.3 | 44.8 | –
17 | c1ccc(NN=C(c2ccccn2)c2ccccn2)nc1 | > 100 | – | > 100 | > 100 | > 100 | > 100 | > 100 | > 100 | – | > 100 | > 100 | > 100 | 7.11 | > 100 | > 100 | > 100 | > 100 | – | – | 26.1
18 | Cc1c(O)c(OC2OC(CO)C(O)C(O)C2O)cc2c1CC[C@@H]1C2(C)C(=O)C[C@]2(C)[C@@H]([C@@](C)(O)C(=O)CCC(C)(C)O)[C@H](O)C[C@@]12C (stereo not given in full) | > 100 | > 100 | > 100 | – | > 100 | > 100 | – | > 100 | > 100 | > 100 | > 100 | > 100 | > 100 | > 100 | > 100 | > 100 | > 100 | > 100 | – | > 100
19 | CCOC(=O)C1(C/C=C/CBr)CCc2ccccc2C1=O (stereo not given) | 37.7 | 27.7 | 22.6 | 94.4 | 30.3 | 30.7 | 27.5 | 30.8 | > 100 | 31 | 47.5 | 29.1 | 38 | 44 | 29.7 | 25.2 | 52.3 | – | – | 41.3
20 | O=C(O/C=C\OC1CCCC1(c1ccccc1)c1ccccc1)c1ccccc1 (stereo not given) | 15 | 43.2 | 20.9 | 23.6 | 9.32 | 33.1 | 3.22 | 28.9 | > 31 | – | 5.72 | 13.9 | 64.3 | 4.58 | 9.8 | 23.8 | 13.8 | – | 6.44 | –
21 | Fc1ccc(C(=C2CCN(CCc3ccc4[nH]c(=S)[nH]c4c3)CC2)c2ccc(F)cc2)cc1 | 7.95 | 52.3 | 7.31 | 40.8 | 4.81 | 19.1 | 39.9 | 27.9 | > 27.8 | – | 11.4 | 24.1 | 25 | 14.2 | 12.7 | 5.74 | 3.82 | – | 8.67 | 3.89
22 | CN1C(=O)c2ccccc2OC12C=Cc1ccc(O)cc1O2 (stereo not given) | 56.1 | 92.8 | 80.1 | 84.3 | > 100 | 77.5 | 26.8 | > 100 | 58.7 | 85.3 | > 100 | > 100 | 53.4 | 85.5 | 96.9 | 37.6 | 57.2 | 27.4 | > 100 | –
23 | Cc1cc(C)c2c(c1)C/C(=C\c1ccccc1C(=O)O)C2=O | – | > 100 | > 100 | > 100 | > 100 | > 100 | > 100 | > 100 | > 100 | – | > 100 | > 100 | > 100 | 97.8 | > 100 | > 100 | > 100 | > 100 | > 100 | > 100
24 | COC1=CC2C(c3cc4ccccc4n3S(=O)(=O)c3ccccc3)CC1CN2C(=O)OCc1ccccc1 (stereo not given) | 54.2 | > 100 | 33.7 | > 100 | > 100 | > 100 | 57.7 | – | – | 75.9 | > 100 | > 100 | – | 75.1 | > 100 | 58.9 | 65.1 | – | 44.6 | 61
25 | CCOC(=O)c1nc2ccc(C(F)(F)F)cc2[nH]c1=O | > 100 | > 100 | – | > 100 | > 100 | > 100 | > 100 | > 100 | > 100 | > 100 | > 100 | > 100 | > 100 | > 100 | > 100 | > 100 | > 100 | > 100 | > 100 | –
26 | COC(=O)[C@H](Cc1c[nH]c2ccccc12)NC(=O)c1ccc(CNC(=O)/C(C)=C/c2ccccc2)cc1 | 27.2 | > 100 | 32.2 | – | 40.3 | > 100 | > 100 | > 100 | > 100 | > 100 | > 100 | > 100 | 64.2 | > 100 | > 100 | 33.2 | > 100 | > 100 | > 100 | 25.6
